Assay results taken from patent publication US9399028B2, “Treatment of drug resistant cancer” (ROCKEFELLER UNIVERSITY (THE), priority 2012, dated 2016).
Structures can show the parent of a compound that is named as a salt.

Experiments:
[1] = system: endothelial cells recruited into matrigel plugs; test: In vivo matrigel plug assay; set-up: species or system mouse; details: VEGF 400 ng/mL + ApoE3 10 μg/mL
Protocol: 10 μg/mL recombinant human ApoE3 (4696, BioVision), 10 μg/mL BSA (A2153, Sigma Aldrich), or 400 ng/ml VEGF were mixed with matrigel (356231, BD Biosciences) as indicated. 400 μL of matrigel containing the indicated recombinant proteins were injected subcutaneously just above the ventral flank of immunocompromised NOD-SCID mice. Plugs were extracted on day 3 post-injection and fixed in 4% paraformaldehyde for 48 hours. Plugs were then paraffin-embedded and sectioned at 5-μm-thick increments. Plug cross-sectional sections were immunohistochemically stained using a primary antibody against the mouse endothelial antigen MECA-32 (Developmental Studies Hybridoma Bank, The University of Iowa, IA), detected by peroxidase-conjugated secondary antibody, and subsequently visualized by DAB oxidization. To quantify the extent of endothelial cell invasion into each matrigel plug, the number of endothelial cells was counted in 4-5 random fields for each plug, and the average number of endothelial cells per given plug area was calculated.

[2] = system: MeWo, SK-Mel-2, SK-Mel-334.2, SK-Mel-239 human melanoma cells; test: Subcutaneous human melanoma tumor growth in immunocompromised mice; format: in vivo
Excerpt: (§1) All data are represented as mean±SEM.
as §1

[3] = system: B-RafV600E/+; Pten-/-; CDKN2A-/- primary mouse melanoma cells; test: B-RafV600E/+; Pten-/-; CDKN2A-/- melanoma cells in syngeneic C57BL/6 mice; format: in vivo
Protocol: FIG. 24A-F. Suppression of Genetically-Driven Melanoma Progression by LXR Activation Therapy. (FIG. 24A) Overall survival of Tyr::CreER; BrafV600E/+; Ptenlox/+C57BL/6 mice following general melanoma induction by intraperitoneal administration of 4-HT (25 mg/kg) on three consecutive days. After the first 4-HT injection, mice were randomly assigned to a control diet or a diet supplemented with GW3965 (100 mg/kg). n=10-11. (FIG. 24B) Melanoma tumor burden, expressed as the percentage of dorsal skin area, measured on day 35 in Tyr::CreER; BrafV600E/+; Ptenlox/lox mice administered a control chow or a chow supplemented with GW3965 (100 mg/kg) upon melanoma induction as described in (FIG. 24A). n=4-5. (FIG. 24C) Number of macroscopic metastatic nodules to the salivary gland lymph nodes detected post-mortem in Tyr::CreER; BrafV600E/+; Ptenlox/lox mice that were fed a control chow or a chow containing GW3965 (100 mg/kg) following global induction of melanoma progression as described in (FIG. 24A). n=7-8. (FIG. 24D) Tumor growth following subcutaneous injection of 1×105 BrafV600E/+; Pten−/−; CDKN2A−/− primary melanoma cells into syngeneic C57BL/6-WT mice. Upon tumor growth to 5-10 mm3 in volume, mice were fed with a control chow or a chow supplemented with GW3965 (100 mg/kg). n=16-18. […]

[4] = system: Tyr::CreER; B-RafV600E/+; Ptenlox/+ and Ptenlox/lox mice; test: Genetically-initiated model of melanoma progression; format: in vivo, mouse
Protocol: The Tyr::CreER; B-Raf^V600E/+, Pten^lox/+/Tyr::CreER; B-Raf^V600E/+, Pten^lox/lox conditional model of melanoma progression was previously established and characterized by Dankort et al. (2009). Briefly, melanoma in these mice was induced at 6 weeks of age by intraperitoneally injecting 4-HT (H6278, 70% isomer, Sigma-Aldrich, St Louis, Mo.) at 25 mg/kg administered in peanut oil on three consecutive days. The 4-HT stock solution was prepared by dissolving it in 100% EtOH at 50 mg/mL by heating at 45° C. for 5 min and mixing. Once dissolved, the stock 4-HT solution was then diluted by 10-fold in peanut oil, yielding a 5 mg/mL 4-HT working solution that was then injected into mice. After the first 4-HT injection, mice were blindedly assigned to receive either a control diet or a diet supplemented with GW3965 (100 mg/kg). Mice were examined three times a week for the presence and progression of melanoma lesions. At day 35, dorsal skin samples were harvested from control-treated and GW3965-treated mice, fixed in 4% PFA and photographed at 10×. The percentage of pigmented melanoma lesion area out of the total skin area was quantified using ImageJ. For survival analyses, mice were monitored daily for melanoma progression and euthanized according to a standard body condition score, taking into account initial signs of moribund state and discomfort associated with the progression of melanoma burden. Post-mortem, the lungs, brains, and salivary glands were harvested and examined for the presence of macroscopic melanoma lesions.

recombinant human ApoE3: recombinant human ApoE3 (4696, BioVision)
suppression of VEGF-induced endothelial recruitment in vivo into subcutaneous matrigel plugs [1]: greater than 40 fold

O=C(O)Cc1cccc(OCCCN(Cc2cccc(C(F)(F)F)c2Cl)CC(c2ccccc2)c2ccccc2)c1 [GW3965 2, 3-[3-[N-(2-Chloro-3-trifluoromethylbenzyl)-(2,2-diphenylethyl)amino]propyloxy]phenylacetic acid hydrochloride]
suppression of growth of SK-Mel-239 vemurafenib-resistant line ([2]; diet 100 mg/kg, NOD Scid gamma mice): 72% | overall survival time, MeWo and SK-Mel-334.2 xenografts ([2]; immunocompromised mice, chow 100 mg/kg after tumor establishment): substantially prolonged | tumor growth inhibition, MeWo ([2]; oral in diet): 70% | tumor growth inhibition, SK-Mel-2 ([2]; oral in diet): 49% | tumor growth inhibition, SK-Mel-334.2 ([2]; oral in diet): 73% | growth of in vivo-derived DTIC-resistant MeWo tumors ([2]; oral, diet 100 mg/kg, NOD Scid gamma mice): strongly inhibited | lung metastasis ([3]; intravenous, diet 100 mg/kg): robustly inhibited | tumor growth ([3]; subcutaneous, chow 100 mg/kg): robustly inhibited | overall survival times ([4]; Ptenlox/+ and Ptenlox/lox mice, diet 100 mg/kg): significantly extended | number of lymphatic metastases detected post-mortem ([4]; Ptenlox/lox mice, salivary gland lymph nodes, 100 mg/kg): decrease | tumor progression ([4]; diet 100 mg/kg after melanoma initiation): attenuated
